Measurements: US20250134890A1, “ANTIMALARIAL HEXAHYDROPYRIMIDINE ANALOGUES” (UCB BIOPHARMA SRL, priority 2022, published 2025)
Counter-ions that a name gives are not always drawn. Like-named read-outs stand apart in the source and are kept apart here.

Tested on: Plasmodium falciparum: 3D7 strain
Experiment: P. falciparum 3D7 asexual blood stage assay (SYBR green readout)
Type: cell-based
Conditions: Plasmodium falciparum, P. falciparum 3D7 in human erythrocytes, 72 h incubation, SYBR green fluorescence
From the text: The compounds of the present invention are potent inhibitors of the growth and propagation of the Plasmodium falciparum parasite in human blood.
The assay used to measure the effect of test compounds on a bloodstream stage of Plasmodium falciparum: 3D7 strain employs SYBR green as the readout. This is a dye that binds to double stranded deoxyribonucleic acid (DNA) with a resulting increase in fluorescence, allowing detection of P. falciparum DNA in infected erythrocytes, and thereby providing a measure of parasite growth and propagation.
Erythrocytes (A+blood) were prepared for both parasite culture and assay by washing 4 times with incomplete media (15.9 g RPMI 1640 (25 mM HEPES, L-glutamine), 1 g NaHCO3, 2 g glucose, 400 μL gentacin (500 mg/mL), 2 mL hypoxanthine solution (13.6 g/L in 0.1M NaOH pH 7.3) in 1 litre of media). The cells were centrifuged at 1800 g for 5 minutes, before decanting the supernatant and re-suspending in fresh incomplete media. On the final wash, the cells were re-suspended in complete media (incomplete media with 5 g/L AlbumaxII), and centrifuged at 1800 g for 3 minutes. This cell sediment was treated as 100% haematocrit.
P. falciparum 3D7 was cultured in erythrocytes at 5% haematocrit in complete media at 37° C. (1% O2, 3% CO2, balance N2). Cultures were split on a weekly basis to achieve a 1% parasitaemia in erythrocites at 5% haematocrit in fresh media. Culture media is replaced by fresh media every other day (2 times during the week).
On day 1, test compounds were added to assay plates using Echo dispensing technology ([…] and 20 points titration). 50 nL of each compound dilution was added to 50 μL of culture (5% haematocrit, 0.5% parasitaemia) and incubated for 72 h at 37° C. (1% O2, 3% CO2, balance N2). Final concentrations of test compounds ranged from 50,000 nM to 15 nM, in […].
On day 4, 10 μL SYBR green (Invitrogen S7563 supplied as 10,000×concentrate in DMSO) pre-diluted to 3×concentrate with Lysis buffer (20 mM Tris pH 7.9, 5% EDTA, 0.16% w/v, 1.6% TX100 v/v) was added to the cultures and incubated in the dark, overnight, at room temperature.
On day 5, fluorescent signal was measured using a BioTek plate reader (excitation 485 nm, emission 528 nm). All data were processed using IDBS ActivityBase. Raw data were converted into percent inhibition through linear regression by setting the high inhibition control (mefloquine) as 100% and the no inhibition control (DMSO) as 0%. Quality control criteria for passing plates were as follows: Z′>0.5, S:B>3, % CV(no inhibition control)<15. The formula used to calculate Z′ is: […]
All EC50 curve fitting was undertaken using the following bi-phasic two site dose response using XLfit model 300 (IDBS):
where A=100 minus the top of the upper curve 1 and the bottom of lower curve; B=Hill slope; log(C)=IC50 concentration at lower site; log(D)=IC50 concentration at upper site; x=inhibitor concentration; and y=% inhibition.

IC50 (Erythrocyte, read-out: IC50)	Compound	IC50 (3D7, Erythrocyte, 72 h)
	C[C@@H]1C[C@H](N2C(=N)N[C@](C)(c3cccc(-c4cccc(Cl)c4)c3Cl)CC2=O)CC[C@@H]1O (relative stereo) [Example 7, (6S)-6-[2-Chloro-3-(3-chloro-phenyl)phenyl]-3-[(1R*,3R*,4S*)-4-hydroxy-3-methylcyclohexyl]-2-imino-6-methylhexahydro-pyrimidin-4-one hydrochloride]	720 nM
	C[C@H]1C[C@@H](N2C(=N)N[C@](C)(c3cccc(-c4cccc(Cl)c4)c3Cl)CC2=O)CC[C@H]1O (relative stereo) [Example 8, (6S)-6-[2-Chloro-3-(3-chloro-phenyl)phenyl]-3-[(1S*,3S*,4R*)-4-hydroxy-3-methylcyclohexyl]-2-imino-6-methylhexahydro-pyrimidin-4-one hydrochloride]	247 nM
	CO[C@@H]1C[C@H](N2C(=N)N[C@](C)(c3cccc(-c4ccc(S(C)(=O)=O)cc4F)c3Cl)CC2=O)CCC1(F)F (relative stereo) [Example 9, (6S)-6-{2-Chloro-3-[2-fluoro-4-(methylsulfonyl)phenyl]phenyl}-3-[(1R*,3R*)-4,4-difluoro-3-methoxycyclohexyl]-2-imino-6-methylhexahydropyrimidin-4-one hydrochloride]	84 nM
	CO[C@H]1C[C@@H](N2C(=N)N[C@](C)(c3cccc(-c4ccc(S(C)(=O)=O)cc4F)c3Cl)CC2=O)CCC1(F)F (relative stereo) [Example 10, (6S)-6-{2-Chloro-3-[2-fluoro-4-(methylsulfonyl)phenyl]phenyl}-3-[(1S*,3S*)-4,4-difluoro-3-methoxy-cyclohexyl]-2-imino-6-methyl-hexahydropyrimidin-4-one hydrochloride]	6 nM
	CO[C@@H]1C[C@H](N2C(=N)N[C@](C)(c3cccc(-c4ccc(N=S(C)(C)=O)cc4F)c3Cl)CC2=O)CCC1(F)F (relative stereo) [Example 11, (6S)-6-[2-Chloro-3-(4-{[(dimethyl)-(oxo)-λ^6-sulfanylidene]amino}-2-fluorophenyl)phenyl]-3-[(1R*,3R*)-4,4-difluoro-3-methoxycyclohexyl]-2-imino-6-methylhexahydropyrimidin-4-one hydrochloride]	367 nM
	CO[C@H]1C[C@@H](N2C(=N)N[C@](C)(c3cccc(-c4ccc(N=S(C)(C)=O)cc4F)c3Cl)CC2=O)CCC1(F)F (relative stereo) [Example 12, (6S)-6-[2-Chloro-3-(4-{[(dimethyl)-(oxo)-λ^6-sulfanylidene]amino}-2-fluorophenyl)phenyl]-3-[(1S*,3S*)-4,4-difluoro-3-methoxy-cyclohexyl]-2-imino-6-methyl-hexahydropyrimidin-4-one hydrochloride]	359 nM
	C[C@@]1(c2cccc(-c3cccc(Cl)c3)c2Cl)CC(=O)N([C@H]2CCC(F)(F)[C@@H](O)C2)C(=N)N1 (relative stereo) [Example 21, (S)-6-[2,3′-Dichloro(1,1′-biphenyl)-3-yl]-3-[(1S*,3S*)-4,4-difluoro-3-hydroxycyclohexyl]-2-imino-6-methyltetrahydropyrimidin-4(1H)-one trifluoroacetic acid salt]	726 nM
	C[C@@]1(c2cccc(-c3cccc(Cl)c3)c2Cl)CC(=O)N([C@@H]2CCC(F)(F)[C@H](O)C2)C(=N)N1 (relative stereo) [Example 22, (S)-6-[2,3′-Dichloro(1,1′-biphenyl)-3-yl]-3-[(1R*,3R*)-4,4-difluoro-3-hydroxycyclohexyl]-2-imino-6-methyltetrahydropyrimidin-4(1H)-one trifluoroacetic acid salt]	154 nM
	C[C@@]1(c2cccc(-c3cncc(Cl)c3)c2Cl)CC(=O)N([C@@H]2CCC(F)(F)[C@H](O)C2)C(=N)N1 (relative stereo) [Example 23, (6S)-6-[2-Chloro-3-(5-chloro-pyridin-3-yl)phenyl]-3-[(1R*,3R*)-4,4-difluoro-3-hydroxycyclohexyl]-2-imino-6-methylhexahydro-pyrimidin-4-one hydrochloride]	158 nM
	C[C@@]1(c2cccc(-c3cccc(Cl)c3)c2Cl)CC(=O)N([C@@H]2CCC(F)(F)[C@@H](O)C2)C(=N)N1 (relative stereo) [Example 24, (6S)-6-[2-Chloro-3-(3-chloro-phenyl)phenyl]-3-[(1R*,3S*)-4,4-difluoro-3-hydroxycyclohexyl]-2-imino-6-methylhexahydro-pyrimidin-4-one trifluoroacetic acid salt]	112 nM
44 nM	C[C@H]1C[C@@H](N2C(=N)N[C@](C)(c3cccc(-c4cccc([C@@H](O)C(F)(F)F)c4)c3Cl)CC2=O)CCO1 (relative stereo) [Example 27, (6S)-6-(2-Chloro-3-{3-[(1R*)-2,2,2-trifluoro-1-hydroxyethyl]-phenyl}phenyl)-2-imino-6-methyl-3-[(2S,4S)-2-methyltetrahydro-pyran-4-yl|hexahydropyrimidin-4-one hydrochloride]	
	C[C@@H]1C[C@H](N2C(=N)N[C@](C)(c3cccc(-c4ccc(F)cc4F)c3Cl)CC2=O)CCS1(=O)=O (relative stereo) [Example 63, (6S)-6-[2-Chloro-3-(2,4-difluoro-phenyl)phenyl]-2-imino-6-methyl-3-[(2R*,4R*)-2-methyl-1,1-dioxo-thian-4-yl]hexahydropyrimidin-4-one hydrochloride]	74 nM
	C[C@H]1C[C@@H](N2C(=N)N[C@](C)(c3cccc(-c4ccc(F)cc4F)c3Cl)CC2=O)CCS1(=O)=O (relative stereo) [Example 64, (6S)-6-[2-Chloro-3-(2,4-difluoro-phenyl)phenyl]-2-imino-6-methyl-3-[(2S*,4S*)-2-methyl-1,1-dioxo-thian-4-yl]hexahydropyrimidin-4-one hydrochloride]	207 nM
	C[C@H]1C[C@H](N2C(=N)N[C@](C)(c3cccc(-c4ccc(F)cc4F)c3Cl)CC2=O)CCS1(=O)=O (relative stereo) [Example 65, (6S)-6-[2-Chloro-3-(2,4-difluoro-phenyl)phenyl]-2-imino-6-methyl-3-[(2S*,4R*)-2-methyl-1,1-dioxo-thian-4-yl]hexahydropyrimidin-4-one hydrochloride]	1300 nM
	C[C@@H]1C[C@@H](N2C(=N)N[C@](C)(c3cccc(-c4ccc(F)cc4F)c3Cl)CC2=O)CCS1(=O)=O (relative stereo) [Example 66, (6S)-6-[2-Chloro-3-(2,4-difluoro-phenyl)phenyl]-2-imino-6-methyl-3-[(2R*,4S*)-2-methyl-1,1-dioxo-thian-4-yl]hexahydropyrimidin-4-one hydrochloride]	272 nM
	C[C@H]1C[C@@H](N2C(=N)N[C@](C)(c3cccc(-c4ccc(C5CC5)nc4)c3Cl)CC2=O)CCS1(=O)=O (relative stereo) [Example 67, (6S)-6-[2-Chloro-3-(6-cyclopropyl-pyridin-3-yl)phenyl]-2-imino-6-methyl-3-[(2S*,4S*)-2-methyl-1,1-dioxothian-4-yl]hexahydro-pyrimidin-4-one hydrochloride]	88 nM
	C[C@@H]1C[C@@H](N2C(=N)N[C@](C)(c3cccc(-c4ccc(C5CC5)nc4)c3Cl)CC2=O)CCS1(=O)=O (relative stereo) [Example 68, (6S)-6-[2-Chloro-3-(6-cyclopropyl-pyridin-3-yl)phenyl]-2-imino-6-methyl-3-[(2R*,4S*)-2-methyl-1,1-dioxothian-4-yl]hexahydro-pyrimidin-4-one hydrochloride]	1140 nM
	C[C@H]1C[C@H](N2C(=N)N[C@](C)(c3cccc(-c4ccc(C5CC5)nc4)c3Cl)CC2=O)CCS1(=O)=O (relative stereo) [Example 69, (6S)-6-[2-Chloro-3-(6-cyclopropyl-pyridin-3-yl)phenyl]-2-imino-6-methyl-3-[(2S*,4R*)-2-methyl-1,1-dioxothian-4-yl]hexahydro-pyrimidin-4-one hydrochloride]	260 nM
	C[C@@H]1C[C@H](N2C(=N)N[C@](C)(c3cccc(-c4ccc(OC(F)F)nc4)c3Cl)CC2=O)CCS1(=O)=O (relative stereo) [Example 70, (6S)-6-{2-Chloro-3-[6-(difluoro-methoxy)pyridin-3-yl]phenyl}-2-imino-6-methyl-3-[(2R*,4R*)-2-methyl-1,1-dioxothian-4-yl]-hexahydropyrimidin-4-one hydrochloride]	85 nM
